Reference: patent US11046889B2, “Polymerizable compound and optically anisotropic body” (DIC Corporation, priority 2015, dated 2021)

Test: Solubility check of 20 wt % solutions in organic solvents
Type: physicochemical
Set-up: key: A: the compound dissolves at room temperature; B: the compound does not dissolve at room temperature but dissolves when heated to 60° C.; the compound does not dissolve even when heated to 60° C
Settings: room temperature or heated to 60° C.; for Results of Solubility Chloroform: 20 wt % solution in chloroform; for Results of Solubility Cyclopentanone: 20 wt % solution in cyclopentanone; for Results of Solubility MEK: 20 wt % solution in methyl ethyl ketone (MEK); for Results of Solubility MIBK: 20 wt % solution in methyl isobutyl ketone (MIBK); for Results of Solubility Toluene: 20 wt % solution in toluene; for Results of Solubility Trichloroethane: 20 wt % solution in trichloroethane
Experimental: 20 wt % solutions of each of the compounds to be evaluated in chloroform, trichloroethane, cyclopentanone, methyl ethyl ketone (MEK), methyl isobutyl ketone (MIBK), and toluene were prepared to check the solubilities of the compound to be evaluated.

| Compound | Results of Solubility Chloroform | Results of Solubility Cyclopentanone | Results of Solubility MEK | Results of Solubility MIBK | Results of Solubility Toluene | Results of Solubility Trichloroethane |
| --- | --- | --- | --- | --- | --- | --- |
| C=CC(=O)OCCCCCCOc1ccc(OC(=O)C2CCC(C(=O)Oc3ccc(C4CCC(CCC)CC4)cc3/C=N/N(CCOCCOC)c3nc4ccccc4s3)CC2)cc1 (stereo not drawn) [Compound I-7] | A | A | A | B | A | A |
| C=CC(=O)OCCOCCOCCOc1ccc(OC(=O)C2CCC(COc3ccc(OCC4CCC(C(=O)Oc5ccc(OCCOCCOCCOC(=O)C=C)cc5)CC4)c(/C=N/N(CCCCCC)c4nc5ccccc5s4)c3)CC2)cc1 (stereo not drawn) [Compound I-5] | A | A | B | B | A | A |
| C=CC(=O)OCCCCCCOc1ccc(OC(=O)C2CCC(COc3ccc(OCC4CCC(C(=O)Oc5ccc(OCCCCCCOC(=O)C=C)cc5)CC4)c(/C=N/N(CCOCCOCCOC(=O)C=C)c4nc5ccccc5s4)c3)CC2)cc1 (stereo not drawn) [Compound I-9] | A | A | A | B | A | A |
| C=CC(=O)OCCOCCOCCOc1ccc(OC(=O)C2CCC(C(=O)Oc3ccc(OC(=O)C4CCC(C(=O)Oc5ccc(OCCOCCOCCOC(=O)C=C)cc5)CC4)c4sc(-c5ccc([N+](=O)[O-])cc5)nc34)CC2)cc1 (stereo not drawn) [Compound I-12] | A | B | B | C | B | A |
| C=CC(=O)OCCCCCCOc1ccc(OC(=O)C2CCC(COc3ccc(C4CCC(CCC)CC4)cc3/C=N/N(CCOCCOC)c3nc4ccccc4s3)CC2)cc1 (stereo not drawn) [Compound I-10] | A | A | B | B | A | A |
| C=CC(=O)OCCOCCOCCOc1ccc(OC(=O)C2CCC(C(=O)Oc3ccc(C4CCC(CCC)CC4)cc3/C=N/Nc3nc4ccccc4s3)CC2)cc1 (stereo not drawn) [Compound I-2] | A | A | A | B | A | A |
| C=CC(=O)OCCCOc1ccc(OC(=O)C2CCC(COc3ccc(OCC4CCC(C(=O)Oc5ccc(OCCCOC(=O)C=C)cc5)CC4)c(/C=N/N(CCOCCOC)c4nc5ccccc5s4)c3)CC2)cc1 (stereo not drawn) [Compound I-8] | A | A | B | B | A | A |
| C=CC(=O)OCCCCCCOc1ccc(OC(=O)C2CCC(COc3ccc(-c4ccc(CCC)cc4)c(/C=N/N(CCOCCOC)c4nc5ccccc5s4)c3)CC2)cc1 (stereo not drawn) [Compound I-11] | A | A | B | B | A | A |
| C=CC(=O)OCCOCCOCCOc1ccc(OC(=O)C2CCC(C(=O)Oc3ccc(C4CCC(C5CCC(CCC)CC5)CC4)cc3/C=N/N(CCCCCC)c3nc4ccccc4s3)CC2)cc1 (stereo not drawn) [Compound I-4] | A | B | C | C | B | B |
| C=CC(=O)OCCOCCOCCOc1ccc(C(=O)Oc2ccc(-c3ccc(CCC)cc3)cc2/C=N/Nc2nc3ccccc3s2)cc1 [Compound I-1] | A | A | A | A | A | A |
| C=CC(=O)OCCCCCCOc1ccc(OC(=O)C2CCC(COc3ccc(OCC4CCC(C(=O)Oc5ccc(OCCCCCCOC(=O)C=C)cc5)CC4)c(/C=N/N(CCOCCOC)c4nc5ccccc5s4)c3)CC2)cc1 (stereo not drawn) [Compound I-6] | A | A | B | B | B | A |
| C=CC(=O)OCCOCCOCCOc1ccc(OC(=O)C2CCC(C(=O)Oc3ccc(C4CCC(CCC)CC4)cc3/C=N/N(CCCCCC)c3nc4ccccc4s3)CC2)cc1 (stereo not drawn) [Compound I-3] | A | A | C | C | B | A |

Further lines, results first:

| Results of Solubility Chloroform | Results of Solubility Cyclopentanone | Results of Solubility MEK | Results of Solubility MIBK | Results of Solubility Toluene | Results of Solubility Trichloroethane | Compound |
| --- | --- | --- | --- | --- | --- | --- |
| A | B | B | C | B | A | C=CC(=O)OCCCCOC(=O)C1CCC(C(=O)OC2CCC(C(=O)Oc3ccc(OC(=O)C4CCC(OC(=O)C5CCC(C(=O)OCCCCOC(=O)C=C)CC5)CC4)c4c3SC(=C(C#N)C(=O)OCCOCCOC(=O)C=C)S4)CC2)CC1 (stereo not drawn) [Compound I-15] |
| B | C | C | C | B | B | C=CC(=O)OCCCCCCOc1ccc(OC(=O)C2CCC(C(=O)Oc3ccc(OC(=O)C4CCC(C(=O)Oc5ccc(OCCCCCCOC(=O)C=C)cc5)CC4)c4sc(-c5ccc([N+](=O)[O-])cc5)nc34)CC2)cc1 (stereo not drawn) [Compound R-2, reference compound] |
| A | B | B | C | B | A | C=CC(=O)OCCOCCOC(=O)C1CCC(C(=O)OC2CCC(C(=O)Oc3ccc(OC(=O)C4CCC(OC(=O)C5CCC(C(=O)OCCOCCOC(=O)C=C)CC5)CC4)c4c3SC(=C3C(=O)N(c5ccccc5)N=C3C(=O)OCC)S4)CC2)CC1 (stereo not drawn) [Compound I-14] |
| A | B | C | C | B | B | C=CC(=O)OCCCCCCOc1ccc(OC(=O)C2CCC(C(=O)Oc3ccc(C4CCC(C5CCC(CCC)CC5)CC4)cc3/C=N/N(CCOCCOC)c3nc4ccccc4s3)CC2)cc1 (stereo not drawn) [Compound I-17] |
| A | B | C | C | B | B | C=CC(=O)OCCCCCCOc1ccc(OC(=O)C2CCC(C(=O)Oc3ccc(OC(=O)C4CCC(C(=O)Oc5ccc(OCCCCCCOC(=O)C=C)cc5)CC4)c(/C=N/N(COCCOC)c4nc5ccccc5s4)c3)CC2)cc1 (stereo not drawn) [Compound R-1, reference compound] |
| A | A | B | B | A | A | C=C(C)C(=O)OCCCCCCOc1ccc(OC(=O)C2CCC(COc3ccc(OCC4CCC(C(=O)Oc5ccc(OCCCCCCOC(=O)C(=C)C)cc5)CC4)c(/C=N/N(CCOCCOC)c4nc5ccccc5s4)c3)CC2)cc1 (stereo not drawn) [Compound I-16] |
| A | C | C | C | B | B | C=CC(=O)OCCCOC(=O)C1CCC(C(=O)OC2CCC(C(=O)Oc3ccc(OC(=O)C4CCC(OC(=O)C5CCC(C(=O)OCCCOC(=O)C=C)CC5)CC4)c4c3SC(=C3C(=O)N(c5ccccc5)N=C3C(=O)OCC)S4)CC2)CC1 (stereo not drawn) [Compound R-3, reference compound] |
| A | B | C | C | B | A | C=CC(=O)OCCOCCOc1ccc(OC(=O)C2CCC(C(=O)Oc3ccc(OC(=O)C4CCC(C(=O)Oc5ccc(OCCOCCOC(=O)C=C)cc5)CC4)c4sc(-c5cc6c(C)cc(C)cc6o5)nc34)CC2)cc1 (stereo not drawn) [Compound I-13] |
